Measurements taken from patent publication US9074014B2 (Ipsen Pharma S.A.S., priority 2008, dated 2015).
Where a SMILES comes first, the peptide text is derived from it. [ ]: non-standard residue; d: D form. Nle = CCCC[C@H](N)C(=O)O; Ac5c = NC1(C(=O)O)CCCC1; Aib = CC(C)(N)C(=O)O

Tests used:
[1] = Human plasma half-life assay; assay type: in vitro ADME; details: human plasma, 37° C., LC-MS; for half-life at 0.1 mg/ml: read-out: Human Plasma T½ (converted)
Protocol: (§1) B. Human and Rat Plasma Half-Life Assay
(§2) 50 μL was removed at various times, like at 0, 1, 2, 3, 4, 8, 24, 32, 48, 56, 72 hours, mixed with 5 μL formic acid and 150 μL acetonitrile in a microcentrifuge tube, vertexed, and centrifuged for 10 minutes at 10K rpm. The supernatant was transferred to an injection vial and analyzed by LC-MS. The LC-MS system consisted of an API4000 mass spectrometer with an ESI probe. Positive ion mode and full scan detection were used. HPLC separation was carried out on a Luna 3μ C8 (2), 2×30 mm column with a gradient from 90% A to 90% B in 10 minutes at a flow rate of 0.3 ml/min. Buffer A was 1% formic acid in water and buffer B was 1% formic acid acetonitrile.

[2] = Rat plasma half-life assay; assay type: in vitro ADME; details: rat plasma, 37° C., LC-MS; for half-life at 0.1 mg/ml: read-out: Rat Plasma T½ (converted)
Protocol: as §1, §2

| SMILES | half-life at 0.1 mg/ml [1] [h] | half-life at 0.1 mg/ml [2] [h] | Human Plasma T½ [1] [h] | Rat Plasma T½ [2] [h] |
| --- | --- | --- | --- | --- |
| CC[C@H](C)[C@H](NC(=O)[C@H](CCCCN)NC(=O)[C@H](CC(=O)O)NC(=O)[C@H](CCSC)NC(=O)C(C)(C)NC(=O)[C@@H](NC(=O)[C@H](CO)NC(=O)[C@H](Cc1ccc(O)cc1)NC(=O)[C@H](CC(=O)O)NC(=O)[C@H](CO)NC(=O)[C@@H](NC(=O)[C@H](Cc1ccccc1)NC(=O)[C@@H](NC(=O)CNC(=O)[C@H](CCC(=O)O)NC(=O)C(C)(C)NC(=O)[C@@H](N)Cc1ccc(O)cc1)[C@@H](C)O)[C@@H](C)CC)[C@@H](C)CC)C(=O)N[C@@H](Cc1c[nH]cn1)C(=O)N[C@@H](CCC(N)=O)C(=O)N[C@@H](CCC(N)=O)C(=O)N[C@@H](CC(=O)O)C(=O)N[C@@H](Cc1ccccc1)C(=O)N[C@H](C(=O)N[C@@H](CC(N)=O)C(=O)N[C@@H](Cc1c[nH]c2ccccc12)C(=O)N[C@@H](CC(C)C)C(=O)N[C@@H](CC(C)C)C(=O)N[C@@H](C)C(=O)N[C@@H](CCC(N)=O)C(=O)N[C@@H](CCCCN)C(N)=O)C(C)C [Example 47, (Aib^2, 13)hGIP(1-30)-NH2] (H-Y[Aib]EGTFISDYSI[Aib]MDKIHQQDFVNWLLAQK-NH2; N-terminus assumed) | 45.3 | 30.8 |  |  |
| CC[C@H](C)[C@H](NC(=O)[C@H](CCCCN)NC(=O)[C@H](CC(=O)O)NC(=O)C1(NC(=O)[C@H](C)NC(=O)[C@@H](NC(=O)C2(NC(=O)[C@H](Cc3ccc(O)cc3)NC(=O)[C@H](CC(=O)O)NC(=O)[C@H](CO)NC(=O)[C@@H](NC(=O)[C@H](Cc3ccccc3)NC(=O)[C@@H](NC(=O)CNC(=O)[C@H](CCC(=O)O)NC(=O)C(C)(C)NC(=O)[C@@H](N)Cc3ccc(O)cc3)[C@@H](C)O)[C@@H](C)CC)CCCC2)[C@@H](C)CC)CCCCC1)C(=O)N[C@@H](Cc1c[nH]cn1)C(=O)N[C@@H](CCC(N)=O)C(=O)N[C@@H](CCC(N)=O)C(=O)N[C@@H](CC(=O)O)C(=O)N[C@@H](Cc1ccccc1)C(=O)N[C@H](C(=O)N[C@@H](CC(N)=O)C(=O)N[C@@H](Cc1c[nH]c2ccccc12)C(=O)N[C@@H](CC(C)C)C(=O)N[C@@H](CC(C)C)C(=O)N[C@@H](C)C(=O)N[C@@H](CCC(N)=O)C(=O)N[C@@H](CCCCN)C(N)=O)C(C)C [Example 48, (Aib^2, A5c^11, A6c^14)hGIP(1-30)-NH2] | > 56 | > 54 |  |  |
| CCCC[C@H](NC(=O)C(C)(C)NC(=O)[C@@H](NC(=O)[C@H](CO)NC(=O)[C@H](Cc1ccc(O)cc1)NC(=O)[C@H](CC(=O)O)NC(=O)[C@H](CO)NC(=O)[C@@H](NC(=O)[C@H](Cc1ccccc1)NC(=O)[C@@H](NC(=O)CNC(=O)[C@H](CCC(=O)O)NC(=O)C(C)(C)NC(=O)[C@@H](N)Cc1ccc(O)cc1)[C@@H](C)O)[C@@H](C)CC)[C@@H](C)CC)C(=O)N[C@@H](CC(=O)O)C(=O)N[C@@H](CCCCN)C(=O)N[C@H](C(=O)N[C@@H](Cc1c[nH]cn1)C(=O)N[C@@H](CCC(N)=O)C(=O)N[C@@H](CCC(N)=O)C(=O)N[C@@H](CC(=O)O)C(=O)N[C@@H](Cc1ccccc1)C(=O)N[C@H](C(=O)N[C@@H](CC(N)=O)C(=O)N[C@@H](Cc1c[nH]c2ccccc12)C(=O)N[C@@H](CC(C)C)C(=O)N[C@@H](CC(C)C)C(=O)N[C@@H](C)C(=O)N[C@@H](CCC(N)=O)C(=O)N[C@@H](CCCCN)C(N)=O)C(C)C)[C@@H](C)CC [Example 49, (Aib^2, 13, Nle^14)hGIP(1-30)-NH2] (H-Y[Aib]EGTFISDYSI[Aib][Nle]DKIHQQDFVNWLLAQK-NH2; N-terminus assumed) |  |  | >56 | 45.0 |
| CCCC[C@H](NC(=O)[C@H](C)NC(=O)[C@@H](NC(=O)C1(NC(=O)[C@H](Cc2ccc(O)cc2)NC(=O)[C@H](CC(=O)O)NC(=O)[C@H](CO)NC(=O)[C@@H](NC(=O)[C@H](Cc2ccccc2)NC(=O)[C@@H](NC(=O)CNC(=O)[C@H](CCC(=O)O)NC(=O)C(C)(C)NC(=O)[C@@H](N)Cc2ccc(O)cc2)[C@@H](C)O)[C@@H](C)CC)CCCC1)[C@@H](C)CC)C(=O)N[C@@H](CC(=O)O)C(=O)N[C@@H](CCCCN)C(=O)N[C@H](C(=O)N[C@@H](Cc1c[nH]cn1)C(=O)N[C@@H](CCC(N)=O)C(=O)N[C@@H](CCC(N)=O)C(=O)N[C@@H](CC(=O)O)C(=O)N[C@@H](Cc1ccccc1)C(=O)N[C@H](C(=O)N[C@@H](CC(N)=O)C(=O)N[C@@H](Cc1c[nH]c2ccccc12)C(=O)N[C@@H](CC(C)C)C(=O)N[C@@H](CC(C)C)C(=O)N[C@@H](C)C(=O)N[C@@H](CCC(N)=O)C(=O)N[C@@H](CCCCN)C(N)=O)C(C)C)[C@@H](C)CC [Example 50, (Aib^2, A5c^11, Nle^14)hGIP(1-30)-NH2] (H-Y[Aib]EGTFISDY[Ac5c]IA[Nle]DKIHQQDFVNWLLAQK-NH2; N-terminus assumed) |  |  | 48.1 | >54 |
| CC[C@H](C)[C@H](NC(=O)[C@H](CO)NC(=O)[C@H](Cc1ccc(O)cc1)NC(=O)[C@H](CC(=O)O)NC(=O)[C@H](CO)NC(=O)C1(NC(=O)[C@H](Cc2ccccc2)NC(=O)[C@@H](NC(=O)CNC(=O)[C@H](CCC(=O)O)NC(=O)C(C)(C)NC(=O)[C@@H](N)Cc2ccc(O)cc2)[C@@H](C)O)CCCCC1)C(=O)N[C@@H](C)C(=O)NC1(C(=O)N[C@@H](CC(=O)O)C(=O)N[C@@H](CCCCN)C(=O)N[C@H](C(=O)N[C@@H](Cc2c[nH]cn2)C(=O)N[C@@H](CCC(N)=O)C(=O)N[C@@H](CCC(N)=O)C(=O)N[C@@H](CC(=O)O)C(=O)N[C@@H](Cc2ccccc2)C(=O)N[C@H](C(=O)N[C@@H](CC(N)=O)C(=O)N[C@@H](Cc2c[nH]c3ccccc23)C(=O)N[C@@H](CC(C)C)C(=O)N[C@@H](CC(C)C)C(=O)N[C@@H](C)C(=O)N[C@@H](CCC(N)=O)C(=O)N[C@@H](CCCCN)C(=O)NCC(=O)N[C@@H](CCCCN)C(=O)N[C@@H](CCCCN)C(=O)N[C@@H](CC(N)=O)C(=O)N[C@@H](CC(=O)O)C(=O)N[C@@H](Cc2c[nH]c3ccccc23)C(=O)N[C@@H](CCCCN)C(=O)N[C@@H](Cc2c[nH]cn2)C(=O)N[C@@H](CC(N)=O)C(=O)N[C@H](C(=O)N[C@H](C(=O)N[C@@H](CCC(N)=O)C(=O)O)[C@@H](C)O)[C@@H](C)CC)C(C)C)[C@@H](C)CC)CCCCC1 [Example 51, (Aib^2, A6c^7, 14)hGIP(1-42)-OH] | 33.8 | 12.7 |  |  |
| CC[C@H](C)[C@H](NC(=O)[C@H](CO)NC(=O)[C@H](Cc1ccc(O)cc1)NC(=O)[C@H](CC(=O)O)NC(=O)[C@H](CO)NC(=O)C1(NC(=O)[C@H](Cc2ccccc2)NC(=O)[C@@H](NC(=O)CNC(=O)[C@H](CCC(=O)O)NC(=O)C(C)(C)NC(=O)[C@@H](N)Cc2ccc(O)cc2)[C@@H](C)O)CCCCC1)C(=O)N[C@@H](C)C(=O)N[C@@H](CCSC)C(=O)N[C@@H](CC(=O)O)C(=O)N[C@@H](CCCCN)C(=O)N[C@H](C(=O)N[C@@H](Cc1c[nH]cn1)C(=O)N[C@@H](CCC(N)=O)C(=O)N[C@@H](CCC(N)=O)C(=O)N[C@@H](CC(=O)O)C(=O)N[C@@H](Cc1ccccc1)C(=O)N[C@H](C(=O)N[C@@H](CC(N)=O)C(=O)N[C@@H](Cc1c[nH]c2ccccc12)C(=O)N[C@@H](CC(C)C)C(=O)N[C@@H](CC(C)C)C(=O)N[C@@H](C)C(=O)N[C@@H](CCC(N)=O)C(=O)N[C@@H](CCCCN)C(N)=O)C(C)C)[C@@H](C)CC [Example 52, (Aib^2, A6c^7)hGIP(1-30)-NH2] | 14 | 28.2 |  |  |
| CCCC[C@H](NC(=O)C(C)(C)NC(=O)[C@@H](NC(=O)[C@H](CO)NC(=O)[C@H](Cc1ccc(O)cc1)NC(=O)[C@H](CC(=O)O)NC(=O)[C@H](CO)NC(=O)[C@@H](NC(=O)[C@H](Cc1ccccc1)NC(=O)[C@@H](NC(=O)CNC(=O)[C@@H]1CC(O)CN1C(=O)[C@H](C)NC(=O)[C@@H](N)Cc1ccc(O)cc1)[C@@H](C)O)[C@@H](C)CC)[C@@H](C)CC)C(=O)N[C@@H](CC(=O)O)C(=O)N[C@@H](CCCCN)C(=O)N[C@H](C(=O)N[C@@H](Cc1c[nH]cn1)C(=O)N[C@@H](CCC(N)=O)C(=O)N[C@@H](CCC(N)=O)C(=O)N[C@@H](CC(=O)O)C(=O)N[C@@H](Cc1ccccc1)C(=O)N[C@H](C(=O)N[C@@H](CC(N)=O)C(=O)N[C@@H](Cc1c[nH]c2ccccc12)C(=O)N[C@@H](CC(C)C)C(=O)N[C@@H](CC(C)C)C(=O)N[C@@H](C)C(=O)N[C@@H](CCC(N)=O)C(=O)N[C@@H](CCCCN)C(=O)NCC(=O)N[C@@H](CCCCN)C(=O)N[C@@H](CCCCN)C(=O)N[C@@H](CC(N)=O)C(=O)N[C@@H](CC(=O)O)C(=O)N[C@@H](Cc1c[nH]c2ccccc12)C(=O)N[C@@H](CCCCN)C(=O)N[C@@H](Cc1c[nH]cn1)C(=O)N[C@@H](CC(N)=O)C(=O)N[C@H](C(=O)N[C@H](C(=O)N[C@@H](CCC(N)=O)C(=O)O)[C@@H](C)O)[C@@H](C)CC)C(C)C)[C@@H](C)CC (some centres unmarked) [Example 68, (4Hyp^3, Aib^13, Nle^14)hGIP(1-42)-OH] | > 48 | 1.9 |  |  |
